For series [1] the following is noted: under overdose conditions; cited from earlier work.
The conditions of series [2]: human, in vivo.
Experimental: Serum samples were analyzed for acetaminophen-protein adducts (as measured by acetaminophen-cysteine or APAP-CYS) using a high-performance liquid chromatography with electrochemical detection (HPLC-EC) method. All serum samples were dialyzed, treated with protease, and then precipitated with trichloracetic acid.
The severity of liver injury was stratified by the highest recorded value for AST concentration.
The subgroups were based on the severity of toxicity defined as the highest recorded value for AST concentration for each patient over the period of hospitalization.

`CC(=O)Nc1ccc(O)cc1` [APAP, Acetaminophen]: the reported elimination half-life entry in series [1] was “about 18 hours”.
On to “3-(cystein-S-yl) APAP (3-Cys-A)-protein adducts [APAP-protein adducts]”, for which the “mean (±SD) half-life of adducts in serum” value in series [2] was found to be 35.3 ± 7.2 h.
